Measured values taken from US4839388A, “Prostacyclins and pharmaceuticals containing the same” (Mitsubishi Chemical Industries Limited, priority 1985, dated 1989).

How the values were obtained:
[1] = tested on: Human platelet aggregation; test: Platelet aggregation inhibiting effect (human platelet rich plasma, ADP induced, in vitro); format: cell-based; conditions: 1 min, human PRP, ADP 2 to 10 μM, 37° C., one minute incubation, read-out: Platelet aggregation inhibiting ratio (IC50)
Procedure: Bloods were sampled from healthy male adults (22 to 34 years old) with no administration of drug for 2 weeks or more early in the morning when they were hungry. By use of an injector filled with a 3.8% sodium citrate solution, 50 ml of blood was sampled, immediately stirred by turning upside down and centrifuged at 200 G for 15 minutes. The supernatant was separated as the PRP (platelet rich plasma) and the residue was further subjected to centrifugation at 2000 G for 15 minutes, followed by recovery of the supernatant as PPP (poor platelet plasma) which ws provided for use in the experiment. 250 μl of PRP was placed in a cuvette, 5 μl of an 1% aqueous ethanol solution of the compound of the present invention or an 1% acqueous ethanol solution was added, and incubation was carried out at 37° C. for one minute. Then, an aggregation inducing agent (ADP) was added and the process of aggregation was recorded by Aggregometer (produced by Sienco Co.). As the concentration of ADP, the minimum concentrations of ADP (2 to 10 μM) to give the maximum aggregation for respective platelets were employed. The inhibition percentage of platelet aggregation was calculated by the following formula:
Inhibition percentage=(A-B/A)×100
A: Maximum aggregation ratio during addition of solvent ([…] aqueous ethanol solution)
B: Maximum aggregation ratio during addition of the compound of the present invention.
The platelet aggregation inhibiting effects of the compounds of the present invention are shown in terms of IC50 values in Table 1.

[2] = tested on: Rat secreted gastric acid; test: Antiulcer effect: rat secreted gastric acid inhibiting effect (pylorus ligature); format: in vivo, Male wistar strain rats; conditions: 100 μg/kg, s.c., immediately after pylorus ligature; for Inhibition percentage: gastric acid vs. control group; for Amount of gastric acid secreted: gastric juice sampled after 4 hours, solvent 73.6 ± 4.3
Procedure: Male wistar strain rats (weighing 250-280 g) were fasted for 18 hours and subjected to peritoneotomy under ether anesthesia for ligature of pylorus, and after 4 hours under abstinence from food and water, gastric juice was sampled. The gastric juice was centrifuged at 3000 rpm for 10 minutes, and then the amount, pH and acidity of the gastric juice were measured. The acidity was measured by titration bymeans of an automatic titrating device (produced by Toa Denpa Kogyo) with a 0.1 N NaOH to pH 7.0 and calculated according to the following formula: [formula]
The gastric juice secretion inhibition percentage was calculated according to the following formula: [formula] A: Amount of gastric acid excreted in Control group B: Amount of gastric acid excreted in Drug group.
The drugs to be tested were administrated subcutaneously immediately after pylorus ligature.

| SMILES | IC50 [1] [nM] | Inhibition percentage [2] [%] | Amount of gastric acid secreted [2] [mEq/l] |
| --- | --- | --- | --- |
| O=C(O)CCC=CC1=C[C@H]2C[C@@H](O)[C@H](C#CC(O)C3CCCCC3)[C@H]2C1 (stereo partly shown) [drawing 46] | 10 |  |  |
| O=C(O)COCCC1=C[C@H]2C[C@@H](O)[C@H](C#CC(O)C3CCCCC3)[C@H]2C1 (stereo partly shown) [drawing 48] | 4.5 |  |  |
| O=C(O)CCC=CC1=C[C@H]2C[C@@H](O)[C@H](C#CC(O)C3CCCCC3)[C@H]2C1 (stereo partly shown) [drawing 50] |  | 7.1 | 68.4 ± 10.1 |
| O=C(O)CCC/C=C1\C[C@H]2C[C@@H](O)[C@H](/C=C/[C@@H](O)C3CCCC3)[C@H]2C1 [OP-41483, reference compound] | 12 |  |  |
| O=C(O)COCCC1=C[C@H]2C[C@@H](O)[C@H](C#CC(O)C3CCCCC3)[C@H]2C1 (stereo partly shown) [drawing 52] |  | 0 | 84.9 ± 10.8 |
